Laboratory results published in patent publication US20020165237A1, “Treatment of the insulin resistance syndrome” (priority 2000, published 2002).

Experiments:
[1] = test system: non-diabetic subjects with the insulin resistance syndrome; assay: Clinical Trial Data 1: 28-day clinical trial with sildenafil, serum triglyceride levels; type: in vivo, human; details: for Fall in serum triglycerides from baseline / Fall in serum triglyceride levels: 28 days; for Fall in serum triglyceride levels: non-diabetic subjects with IRS, preliminary data
Description: In a 28-day clinical trial with sildenafil, serum triglyceride levels were obtained before and at the end of dosing from non-diabetic subjects. Doses included in the study were 10 mg, 25 mg and […] of sildenafil or placebo, dosed once daily. These subjects had the insulin resistance syndrome, as defined by the risk factors as defined hereinbefore. Data are presented in tables 5 and 6 below to illustrate that subjects had evidence of the insulin resistance syndrome. Coronary artery disease (CAD)/ischaemic heart disease (1HD) is one clinical end-point in subjects having the Insulin Resistance Syndrome. For this reason the presence of CAD/IHD was taken as evidence to support the existence of the Insulin Resistance Syndrome in patients with only one of the defined risk factors.

ob/ob mice [2] = assay: Plasma glucose and triglyceride levels in ob/ob mice, compound administered in the drinking water, 5 day study; type: in vivo; details: for Plasma Triglyceride Level: day 5, mean ± SEM; for Changes in Plasma Glucose Concentrations: over 5 day period, mean ± SEM
Description: (§1) The selective PDE5 inhibitor compounds to be tested were solubilized in 10% DMSO/0.1% pluronics and dosed via oral gavage using mouse oral feeding needles (20 gauge, Popper & Sons, Inc., New Hyde Park, N.Y.). A volume of 4 ml/kg weight was administered for each dose. Compounds were tested at doses ranging from 1-50 mg/kg. Alternatively, the test selective PDE5 inhibitor compound was administered in the drinking water and found to produce similar reductions in plasma glucose and triglycerides to the reductions observed for the same compound when administered by oral gavage.
(§2) Male ob/ob mice obtained from Jackson Laboratories (Bar Harbor, ME) were used in the studies at 6 to 10 weeks of age. Mice were housed five per cage and allowed free access to D11 mouse chow (Purina, Brentwood, Mo.) and water.
(§3) Mice were allowed to acclimate to the Pfizer animal facilities for 1 week prior to the start of the study. On day one, retro-orbital blood samples were obtained and plasma glucose was determined as described hereinafter. […] On day one, mice were dosed with vehicle or a test selective PDE5 inhibitor compound only in the afternoon. Subsequently, mice were dosed twice a day on day 2-4 in the morning and in the afternoon. On day 5, the mice received an a.m. dose and bled 3 hours later for plasma preparation for glucose and triglyceride analysis as described below. Alternatively, test selective PDE5 inhibitor compound was administered in the drinking water commencing on the afternoon of day 1 and continuing through day 5, when mice were then bled for plasma preparation for glucose and triglyceride analysis as described below. Terminal plasma samples were collected on day 5 following the retro-orbital sinus bleed as described below. Body weight was measured on days 1 and 5 of the study, and food consumption was assessed over the 5 day period.
(§4) On the morning of the last day of the study mice were dosed with test compound or vehicle at approximately 8:00 am. Three hours after dosing, 25 μL of blood was obtained via the retro-orbital sinus and added to 100 μL of 0.025% heparinized-saline in Denville Scientific microtubes. The tubes were spun at the highest setting in a Beckman Microfuge 12 for 2 minutes. Plasma was collected for plasma glucose and triglyceride determination. The mice were then sacrificed by decapitation and ˜1 ml of blood was collected in Becton-Dickinson Microtainer brand plasma separator tubes with lithium heparin. The tubes were spun in a Beckman Microfuge 12 at the maximum setting for five minutes. Plasma was collected in 1.5 ml Eppendorf tubes and snap frozen in liquid nitrogen. Plasma samples were stored at −80° C. until analyzed.
(§5) Plasma glucose and triglycerides were measured using the Alcyon Clinical Chemistry Analyzer (Abbott Laboratories, Abbott Park, Ill.) using kits supplied by Abbott. Plasma cGMP was measured using the Biotrak enzyme-immunoassay system by Amersham (Piscataway, N.J.). Via a similar technique the plasma insulin can be assessed by the Mercodia ELISA Insulin kit by ALPCO (Uppsala, Sweden). All assays were conducted according to instructions provided by the manufacturers.
(§6) Comparisons between drug treatments and appropriate vehicles were done by Student's t-test.

ob/ob mice [3] = assay: Plasma glucose, cGMP and triglyceride levels in ob/ob mice, oral gavage, 5 day study; type: in vivo; details: mean ± SEM; for Changes in Plasma Glucose Concentrations: over 5 day period; for Plasma Triglyceride Level: day 5, 3 hours after dose
Description: as §1, §2, §3, §4, §5, §6

[4] = 10 mg once daily, baseline 255 mg/dl
[5] = 25 mg once daily, baseline 213 mg/dl
[6] = 50 mg once daily, baseline 191 mg/dl

**Q.** Which “Fall in serum triglycerides from baseline” value (shortened to “Fall in serum triglycerides”) [1, 4] does the source give for `CCCc1nn(C)c2c(=O)[nH]c(-c3cc(S(=O)(=O)N4CCN(C)CC4)ccc3OCC)nc12` [PDE5 C, 5-[2-ethoxy-5-(4-methyl-1-piperazinylsulphonyl)phenyl]-1-methyl-3-n-propyl-1,6-dihydro-7H-pyrazolo[4,3-d]pyrimidin-7-one] here?
**A.** Its value is “about 40%”.

**Q.** And the “Fall in serum triglyceride levels” value [1, 4]?
**A.** Its value is 100.3 mg/dL.

**Q.** And the “Fall in serum triglycerides” value [1, 5]?
**A.** Its value is roughly 31%.

**Q.** And the “Fall in serum triglyceride levels” value [1, 5]?
**A.** Its value is 67.3 mg/dL.

**Q.** And the “Fall in serum triglycerides” value [1, 6]?
**A.** The value was roughly 12%.

**Q.** And the “Fall in serum triglyceride levels” value [1, 6]?
**A.** The value was 23.9 mg/dL.

**Q.** What about the “Reduction of serum triglycerides compared to placebo” value ([1]; sildenafil group vs placebo, p=0.0457) of the same compound?
**A.** Its value is “statistically significantly different compared to placebo”.

**Q.** What about the “HDL compared to placebo” value ([1]; sildenafil group vs placebo, p=0.0539) of the same compound?
**A.** The value was “trend”.

**Q.** What about the “Plasma Triglyceride Level” value (ob/ob mice [2]; 9 mg/kg in the drinking water) of the same compound?
**A.** The value was 163 ± 14 mg/dL.

**Q.** What about the “Changes in Plasma Glucose Concentrations” value (ob/ob mice [2]; 9 mg/kg in the drinking water) of the same compound?
**A.** Its value is -27 ± 34 mg/dL.

**Q.** What about the “Plasma Triglyceride Level” value (ob/ob mice [2]; 22 mg/kg in the drinking water) of the same compound?
**A.** The value was 212 ± 20 mg/dL.

**Q.** And the “Changes in Plasma Glucose Concentrations” value (ob/ob mice [2]; 22 mg/kg in the drinking water)?
**A.** The value was -15 ± 27 mg/dL.

**Q.** What about the “Plasma Triglyceride Level” value (ob/ob mice [2]; 45 mg/kg in the drinking water) of the same compound?
**A.** The value was 151 ± 10 mg/dL.

**Q.** What about the “Changes in Plasma Glucose Concentrations” value (ob/ob mice [2]; 45 mg/kg in the drinking water) of the same compound?
**A.** The value was −36 ± 22^ mg/dl.

**Q.** With `CCCc1nn(C)c2c(=O)[nH]c(-c3cc(C(=O)CN4CCOCC4)ccc3OCC)nc12` [PDE5 B, 5-(2-ethoxy-5-morpholinoacetylphenyl)-1-methyl-3-n-propyl-1,6-dihydro-7H-pyrazolo[4,3-d]pyrimidin-7-one] as the compound, how does the “Changes in Plasma Glucose Concentrations” value (ob/ob mice [3]; 25 mg/kg oral gavage twice a day) read?
**A.** The value was -97 ± 32 mg/dL.

**Q.** And the “Plasma Triglyceride Level” value (ob/ob mice [3]; 25 mg/kg oral gavage)?
**A.** The value was 143 ± 7^ mg/dl.

**Q.** Which results are given for `CCCOc1ccc(S(=O)(=O)N2CCN(CC)CC2)cc1-c1nc2c(CC)n(Cc3ccccn3)nc2c(=O)[nH]1` [PDE5 A, 3-ethyl-5-[5-(4-ethylpiperazin-1-ylsulphonyl)-2-n-propoxyphenyl]-2-(pyridin-2-yl)methyl-2,6-dihydro-7H-pyrazolo[4,3-d]pyrimidin-7-one]?
**A.** Changes in Plasma Glucose Concentrations (ob/ob mice [3]; 10 mg/kg oral gavage twice a day): -115 ± 34 mg/dL; Plasma Triglyceride Level (ob/ob mice [3]; 10 mg/kg oral gavage): 163 ± 10 mg/dL; Changes in Plasma Glucose Concentrations (ob/ob mice [3]; 50 mg/kg oral gavage twice a day): -105 ± 25 mg/dL
